Data taken from PubChem BioAssay (NCI).
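Growth conditions: 96-well plates. Treatment: test compound, 48 hours, 5 concentrations. Analysis: linear interpolation between bracketing concentrations; unreached endpoints set to highest concentration. GI50: concentration for 50% inhibition of growth. TGI is the concentration that stops growth completely.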

Legend:
Test in all cases: growth of human tumour cells (NCI), 48 h
MOLT-4 leukemia = tested on: MOLT-4 leukemia
RXF 393 renal = tested on: RXF 393 renal
RPMI-8226 leukemia = tested on: RPMI-8226 leukemia
SK-MEL-2 melanoma = tested on: SK-MEL-2 melanoma
A498 renal = tested on: A498 renal
NCI-H226 lung = tested on: NCI-H226 lung
MDA-MB-231 breast = tested on: MDA-MB-231 breast
SF-268 CNS = tested on: SF-268 CNS
A549 NSCLC = tested on: A549 NSCLC
CCRF-CEM leukemia = tested on: CCRF-CEM leukemia
LOX IMVI melanoma = tested on: LOX IMVI melanoma
HCT-15 colon = tested on: HCT-15 colon
BT-549 breast = tested on: BT-549 breast
SR leukemia = tested on: SR leukemia
SN12C renal = tested on: SN12C renal
KM12 colon = tested on: KM12 colon
M14 melanoma = tested on: M14 melanoma
NCI/ADR-RES ovarian = tested on: NCI/ADR-RES ovarian
MDA-MB-435 = tested on: MDA-MB-435
SNB-75 CNS = tested on: SNB-75 CNS
IGROV1 ovarian = tested on: IGROV1 ovarian
PC-3 prostate = tested on: PC-3 prostate
EKVX NSCLC = tested on: EKVX NSCLC
K-562 leukemia = tested on: K-562 leukemia
UACC-257 melanoma = tested on: UACC-257 melanoma
DU-145 prostate = tested on: DU-145 prostate
MALME-3M melanoma = tested on: MALME-3M melanoma
HCC-2998 colon = tested on: HCC-2998 colon
NCI-H522 lung = tested on: NCI-H522 lung
SK-MEL-5 melanoma = tested on: SK-MEL-5 melanoma
U251 CNS = tested on: U251 CNS
SW-620 colon = tested on: SW-620 colon
ACHN renal = tested on: ACHN renal
OVCAR-3 ovarian = tested on: OVCAR-3 ovarian
UACC-62 melanoma = tested on: UACC-62 melanoma
MCF7 breast = tested on: MCF7 breast
SNB-19 CNS = tested on: SNB-19 CNS
T-47D breast = tested on: T-47D breast
SK-OV-3 ovarian = tested on: SK-OV-3 ovarian
COLO 205 colon = tested on: COLO 205 colon
CAKI-1 renal = tested on: CAKI-1 renal
OVCAR-8 ovarian = tested on: OVCAR-8 ovarian
OVCAR-5 ovarian = tested on: OVCAR-5 ovarian
HS 578T breast = tested on: HS 578T breast
HOP-92 NSCLC = tested on: HOP-92 NSCLC
NCI-H460 lung = tested on: NCI-H460 lung
HT29 colon = tested on: HT29 colon
SF-539 CNS = tested on: SF-539 CNS
UO-31 renal = tested on: UO-31 renal
SF-295 CNS = tested on: SF-295 CNS
786-0 renal = tested on: 786-0 renal
HCT-116 colon = tested on: HCT-116 colon
TK-10 renal = tested on: TK-10 renal
SK-MEL-28 melanoma = tested on: SK-MEL-28 melanoma
HL-60(TB) leukemia = tested on: HL-60(TB) leukemia
OVCAR-4 ovarian = tested on: OVCAR-4 ovarian
NCI-H23 lung = tested on: NCI-H23 lung

Q: `CCN1/C(=C\c2cc[n+](CC)c3ccccc23)C=Cc2ccccc21` was tested. Which GI50 (MOLT-4 leukemia) did it give?
A: 207 nM

Q: And the TGI (MOLT-4 leukemia)?
A: 4440 nM

Q: What about the GI50 (RXF 393 renal) of the same compound?
A: 333 nM

Q: What about the TGI (RXF 393 renal) of the same compound?
A: 4270 nM

Q: What about the GI50 (RPMI-8226 leukemia) of the same compound?
A: 50.3 nM

Q: What about the TGI (RPMI-8226 leukemia) of the same compound?
A: 753 nM

Q: And the GI50 (SK-MEL-2 melanoma)?
A: 231 nM

Q: And the TGI (SK-MEL-2 melanoma)?
A: 10900 nM

Q: What about the GI50 (A498 renal) of the same compound?
A: 187 nM

Q: And the TGI (A498 renal)?
A: 2780 nM

Q: What about the GI50 (NCI-H226 lung) of the same compound?
A: 301 nM

Q: And the TGI (NCI-H226 lung)?
A: 13100 nM

Q: What about the GI50 (MDA-MB-231 breast) of the same compound?
A: 273 nM

Q: What about the TGI (MDA-MB-231 breast) of the same compound?
A: 10200 nM

Q: And the GI50 (SF-268 CNS)?
A: 291 nM

Q: And the TGI (SF-268 CNS)?
A: 13200 nM

Q: What about the GI50 (A549 NSCLC) of the same compound?
A: 215 nM

Q: What about the TGI (A549 NSCLC) of the same compound?
A: 18100 nM

Q: What about the GI50 (CCRF-CEM leukemia) of the same compound?
A: 85.9 nM

Q: And the TGI (CCRF-CEM leukemia)?
A: 13400 nM

Q: What about the GI50 (LOX IMVI melanoma) of the same compound?
A: 179 nM

Q: What about the TGI (LOX IMVI melanoma) of the same compound?
A: 1520 nM

Q: And the GI50 (HCT-15 colon)?
A: 2840 nM

Q: What about the TGI (HCT-15 colon) of the same compound?
A: 13300 nM

Q: What about the GI50 (BT-549 breast) of the same compound?
A: 81.1 nM

Q: What about the TGI (BT-549 breast) of the same compound?
A: 1500 nM

Q: What about the GI50 (SR leukemia) of the same compound?
A: 152 nM

Q: What about the TGI (SR leukemia) of the same compound?
A: 4860 nM

Q: And the GI50 (SN12C renal)?
A: 233 nM

Q: And the TGI (SN12C renal)?
A: 11900 nM

Q: And the GI50 (KM12 colon)?
A: 104 nM

Q: And the TGI (KM12 colon)?
A: 1420 nM

Q: And the GI50 (M14 melanoma)?
A: 302 nM

Q: And the TGI (M14 melanoma)?
A: 2470 nM

Q: What about the GI50 (NCI/ADR-RES ovarian) of the same compound?
A: 13800 nM

Q: What about the TGI (NCI/ADR-RES ovarian) of the same compound?
A: 46200 nM

Q: And the GI50 (MDA-MB-435)?
A: 109 nM

Q: And the TGI (MDA-MB-435)?
A: 1160 nM

Q: What about the GI50 (SNB-75 CNS) of the same compound?
A: 169 nM

Q: And the TGI (SNB-75 CNS)?
A: 871 nM

Q: And the GI50 (IGROV1 ovarian)?
A: 360 nM

Q: What about the TGI (IGROV1 ovarian) of the same compound?
A: 12800 nM

Q: What about the GI50 (PC-3 prostate) of the same compound?
A: 117 nM

Q: What about the TGI (PC-3 prostate) of the same compound?
A: 1850 nM

Q: What about the GI50 (EKVX NSCLC) of the same compound?
A: 76.4 nM

Q: And the TGI (EKVX NSCLC)?
A: 12100 nM

Q: What about the GI50 (K-562 leukemia) of the same compound?
A: 47.7 nM

Q: And the TGI (K-562 leukemia)?
A: 12800 nM

Q: And the GI50 (UACC-257 melanoma)?
A: 135 nM

Q: What about the TGI (UACC-257 melanoma) of the same compound?
A: 2360 nM

Q: What about the GI50 (DU-145 prostate) of the same compound?
A: 265 nM

Q: And the TGI (DU-145 prostate)?
A: 13400 nM

Q: And the GI50 (MALME-3M melanoma)?
A: 138 nM

Q: And the TGI (MALME-3M melanoma)?
A: 857 nM

Q: And the GI50 (HCC-2998 colon)?
A: 141 nM

Q: And the TGI (HCC-2998 colon)?
A: 2610 nM

Q: And the GI50 (NCI-H522 lung)?
A: 197 nM

Q: And the TGI (NCI-H522 lung)?
A: 10300 nM

Q: And the GI50 (SK-MEL-5 melanoma)?
A: 60.5 nM

Q: What about the TGI (SK-MEL-5 melanoma) of the same compound?
A: 215 nM

Q: What about the GI50 (U251 CNS) of the same compound?
A: 119 nM

Q: And the TGI (U251 CNS)?
A: 12700 nM

Q: What about the GI50 (SW-620 colon) of the same compound?
A: 230 nM

Q: And the TGI (SW-620 colon)?
A: 7810 nM

Q: And the GI50 (ACHN renal)?
A: 1190 nM

Q: What about the TGI (ACHN renal) of the same compound?
A: 5880 nM

Q: And the GI50 (OVCAR-3 ovarian)?
A: 118 nM

Q: What about the TGI (OVCAR-3 ovarian) of the same compound?
A: 1080 nM

Q: What about the GI50 (UACC-62 melanoma) of the same compound?
A: 179 nM

Q: And the TGI (UACC-62 melanoma)?
A: 1270 nM

Q: And the GI50 (MCF7 breast)?
A: 114 nM

Q: What about the TGI (MCF7 breast) of the same compound?
A: 1850 nM

Q: And the GI50 (SNB-19 CNS)?
A: 163 nM

Q: What about the TGI (SNB-19 CNS) of the same compound?
A: 11700 nM

Q: And the GI50 (T-47D breast)?
A: 40.3 nM

Q: What about the TGI (T-47D breast) of the same compound?
A: 1750 nM

Q: And the GI50 (SK-OV-3 ovarian)?
A: 236 nM

Q: What about the TGI (SK-OV-3 ovarian) of the same compound?
A: 11400 nM

Q: And the GI50 (COLO 205 colon)?
A: 102 nM

Q: What about the TGI (COLO 205 colon) of the same compound?
A: 320 nM

Q: And the GI50 (CAKI-1 renal)?
A: 4710 nM

Q: And the TGI (CAKI-1 renal)?
A: 22500 nM

Q: What about the GI50 (OVCAR-8 ovarian) of the same compound?
A: 230 nM

Q: What about the TGI (OVCAR-8 ovarian) of the same compound?
A: 13000 nM

Q: And the GI50 (OVCAR-5 ovarian)?
A: 611 nM

Q: And the TGI (OVCAR-5 ovarian)?
A: 13800 nM

Q: What about the GI50 (HS 578T breast) of the same compound?
A: 330 nM

Q: And the TGI (HS 578T breast)?
A: 15800 nM

Q: What about the GI50 (HOP-92 NSCLC) of the same compound?
A: 161 nM

Q: And the TGI (HOP-92 NSCLC)?
A: 937 nM

Q: What about the GI50 (NCI-H460 lung) of the same compound?
A: 193 nM

Q: What about the TGI (NCI-H460 lung) of the same compound?
A: 1090 nM

Q: And the GI50 (HT29 colon)?
A: 202 nM

Q: And the TGI (HT29 colon)?
A: 10800 nM

Q: What about the GI50 (SF-539 CNS) of the same compound?
A: 220 nM

Q: What about the TGI (SF-539 CNS) of the same compound?
A: 11000 nM

Q: What about the GI50 (UO-31 renal) of the same compound?
A: 1890 nM

Q: What about the TGI (UO-31 renal) of the same compound?
A: 8100 nM

Q: What about the GI50 (SF-295 CNS) of the same compound?
A: 223 nM

Q: What about the TGI (SF-295 CNS) of the same compound?
A: 2900 nM

Q: What about the GI50 (786-0 renal) of the same compound?
A: 465 nM

Q: And the TGI (786-0 renal)?
A: 12000 nM

Q: What about the GI50 (HCT-116 colon) of the same compound?
A: 124 nM

Q: And the TGI (HCT-116 colon)?
A: 10300 nM

Q: What about the GI50 (TK-10 renal) of the same compound?
A: 448 nM

Q: What about the TGI (TK-10 renal) of the same compound?
A: 13700 nM

Q: And the GI50 (SK-MEL-28 melanoma)?
A: 275 nM

Q: What about the TGI (SK-MEL-28 melanoma) of the same compound?
A: 2330 nM

Q: And the GI50 (HL-60(TB) leukemia)?
A: 123 nM

Q: What about the TGI (HL-60(TB) leukemia) of the same compound?
A: 820 nM

Q: What about the GI50 (OVCAR-4 ovarian) of the same compound?
A: 55.9 nM

Q: What about the TGI (OVCAR-4 ovarian) of the same compound?
A: 12200 nM

Q: What about the GI50 (NCI-H23 lung) of the same compound?
A: 87.1 nM

Q: And the TGI (NCI-H23 lung)?
A: 7560 nM
